Test results: PubChem BioAssay (NCI)
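Each compound was tested at five concentrations against cells in 96-well plates for 48 hours. TGI: total growth inhibition.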

Tests used:
Test in all cases: NCI-60 cell line screen, 48 h
A549 NSCLC = system: A549 NSCLC
U251 CNS = system: U251 CNS
SNB-19 CNS = system: SNB-19 CNS
BT-549 breast = system: BT-549 breast
IGROV1 ovarian = system: IGROV1 ovarian
SNB-75 CNS = system: SNB-75 CNS
TK-10 renal = system: TK-10 renal
HT29 colon = system: HT29 colon
HCT-116 colon = system: HCT-116 colon
SF-268 CNS = system: SF-268 CNS
CAKI-1 renal = system: CAKI-1 renal
M14 melanoma = system: M14 melanoma
MDA-N = system: MDA-N
COLO 205 colon = system: COLO 205 colon
K-562 leukemia = system: K-562 leukemia
OVCAR-5 ovarian = system: OVCAR-5 ovarian
DU-145 prostate = system: DU-145 prostate
NCI-H226 lung = system: NCI-H226 lung
A498 renal = system: A498 renal

Compound | TGI (A549 NSCLC) | TGI (U251 CNS) | TGI (SNB-19 CNS) | TGI (BT-549 breast) | TGI (IGROV1 ovarian) | TGI (SNB-75 CNS) | TGI (TK-10 renal) | TGI (HT29 colon) | TGI (HCT-116 colon) | TGI (SF-268 CNS) | TGI (CAKI-1 renal) | TGI (M14 melanoma) | TGI (MDA-N) | TGI (COLO 205 colon) | TGI (K-562 leukemia) | TGI (OVCAR-5 ovarian) | TGI (DU-145 prostate) | TGI (NCI-H226 lung) | TGI (A498 renal)
C=C(C)[C@@H]1CCC2=C[C@H](OC2=O)[C@@]2(C)C[C@@H]2C(=O)/C=C(/C)C(=O)[C@H]1OC(C)=O | > 71.9 µM | > 68 µM | > 73.7 µM | 27.4 µM | > 69.3 µM | > 83.5 µM | > 62.7 µM | > 48.4 µM | 20.3 µM | > 72.6 µM | 42 µM | > 100 µM | > 35.8 µM | 45.3 µM | > 32.2 µM | 43.9 µM | 21 µM | 58.3 µM | 57.8 µM
CCOC(=O)N1CCN(c2nc(C)n(-c3ccccc3)c(=S)c2C#N)CC1 | > 100 µM | > 100 µM | > 100 µM | > 100 µM | > 63.4 µM | > 79.7 µM | > 100 µM | > 100 µM | > 100 µM | > 100 µM | > 100 µM | > 100 µM | > 72.2 µM | > 100 µM | > 100 µM | > 100 µM | > 100 µM | > 100 µM | > 100 µM
CC[C@@H]1CC[C@@H]2[C@H](CC[C@]3(C)[C@@H](O)CC[C@@H]23)[C@H]1CO | > 100 µM | > 100 µM | > 100 µM | > 100 µM | > 100 µM | > 100 µM | > 100 µM | > 100 µM | > 100 µM | > 100 µM | > 100 µM | > 100 µM | > 100 µM | > 100 µM | > 100 µM | > 100 µM | > 100 µM | > 100 µM | > 100 µM
Cn1c(=O)cc(N=Nc2ccc(Cl)c(Cl)c2)[nH]c1=O | > 100 µM | 56.3 µM | > 100 µM | 96.2 µM | > 100 µM | > 100 µM | 47.9 µM | 38.6 µM | 59.6 µM | 51.1 µM | 28.5 µM | 47.7 µM | 37.4 µM | 60.5 µM | 55.9 µM | > 100 µM | > 100 µM | > 100 µM | > 100 µM
CCOC(=O)c1[nH]cc(C)c1-c1c[nH]c2ccccc12 | > 100 µM | > 100 µM | > 100 µM | 93.8 µM | > 100 µM | 90.7 µM | > 80.3 µM | > 82.6 µM | > 53.2 µM | > 100 µM | > 100 µM | > 100 µM | > 83.8 µM | 58.9 µM | > 80.4 µM | > 100 µM | > 100 µM | 67.6 µM | > 100 µM
COC(=O)C(Cc1c(C2Nc3ccccc3C2CC(NC(C)=O)C(=O)OC)[nH]c2ccccc12)NC(C)=O (stereo unspecified) | > 100 µM | > 100 µM | > 100 µM | > 100 µM | > 100 µM | > 100 µM | > 100 µM | > 100 µM | > 100 µM | > 100 µM | > 100 µM | > 100 µM | > 100 µM | > 100 µM | > 100 µM | > 100 µM | > 100 µM | > 100 µM | > 100 µM
COC(=O)Cc1c(/C=C/C(C)(C)n2cnc(CCN3C(=O)CCC3=O)c2)[nH]c2ccccc12 | > 100 µM | > 100 µM | > 100 µM | > 100 µM | > 100 µM | > 100 µM | > 100 µM | > 100 µM | > 100 µM | > 100 µM | > 100 µM | > 100 µM | > 100 µM | > 100 µM | > 100 µM | > 100 µM | > 100 µM | > 100 µM | > 100 µM
NCCCCN(CCCN)Cc1ccc2ccccc2c1 | > 100 µM | > 100 µM | 55 µM | > 100 µM | > 100 µM | 22.8 µM | > 100 µM | > 100 µM | > 100 µM | 44 µM | 33 µM | > 100 µM | 51.7 µM | > 100 µM | > 100 µM | > 100 µM | > 100 µM | > 100 µM | > 100 µM
C/C(=N/c1[nH]c(=O)cc2c1C(=O)CC2)N(C)C | > 200 µM | > 200 µM | > 200 µM | > 200 µM | > 200 µM | > 200 µM | > 200 µM | > 200 µM | > 200 µM | > 200 µM | > 200 µM | > 200 µM | > 200 µM | > 200 µM | > 200 µM | > 200 µM | > 200 µM | > 200 µM | > 200 µM
Cc1cn([C@H]2C[C@@H]3[C@@H](COC(CCl)N3O)O2)c(=O)[nH]c1=O (stereo partly specified) | > 100 µM | > 100 µM | > 100 µM | > 100 µM | > 100 µM | > 100 µM | > 100 µM | > 100 µM | > 100 µM | > 100 µM | > 100 µM | > 100 µM | > 100 µM | > 100 µM | > 100 µM | > 100 µM | > 100 µM | > 100 µM | > 100 µM
C/C=N\n1c(C)c(C#N)c(C#N)c1N | > 100 µM | > 100 µM | > 100 µM | > 100 µM | > 100 µM | > 100 µM | > 100 µM | > 100 µM | > 100 µM | > 100 µM | > 100 µM | > 100 µM | > 100 µM | > 100 µM | > 100 µM | > 100 µM | > 100 µM | > 100 µM | > 100 µM
CC1=NN(C(=O)CC(=O)Nc2cccc(C)c2)C(=O)C1N=Nc1ccc(S(=O)(=O)c2ccc(N=NC3C(=O)N(C(=O)CC(=O)Nc4cccc(C)c4)N=C3C)cc2)cc1 (stereo unspecified) | > 100 µM | > 100 µM | > 100 µM | > 100 µM | > 100 µM | > 100 µM | > 100 µM | > 100 µM | > 100 µM | > 100 µM | > 100 µM | > 100 µM | > 100 µM | > 100 µM | > 100 µM | > 100 µM | > 100 µM | > 100 µM | > 100 µM
CC(C)(C)C1(O)C=C(O)C(=O)N1NC(=O)c1ccccc1Nc1ccccc1 (stereo unspecified) | > 100 µM | > 100 µM | > 100 µM | > 100 µM | > 100 µM | > 100 µM | > 100 µM | > 100 µM | > 100 µM | > 100 µM | > 100 µM | > 100 µM | > 100 µM | > 100 µM | > 100 µM | > 100 µM | > 100 µM | > 100 µM | > 100 µM
CC1(C)CCCCCCC2CC2CCCCCC(C)(C)C1=O (stereo unspecified) | > 100 µM | > 100 µM | > 100 µM | > 100 µM | > 100 µM | > 100 µM | > 100 µM | > 100 µM | > 100 µM | > 100 µM | > 100 µM | > 100 µM | > 100 µM | > 100 µM | 98.1 µM | > 100 µM | > 100 µM | > 100 µM | > 100 µM
Cc1ccc2c(c1)C(C1Cc3cccc(C)c3C1=O)OC2=O (stereo unspecified) | > 100 µM | > 100 µM | > 100 µM | > 100 µM | > 100 µM | > 100 µM | > 100 µM | > 100 µM | > 100 µM | > 100 µM | > 100 µM | > 100 µM | > 100 µM | > 100 µM | > 100 µM | > 100 µM | > 100 µM | > 100 µM | > 100 µM
Clc1ccc(C2=C(c3ccccc3)C(c3ccc(Cl)cc3)N3C(=N[C@H]4CCCC[C@@H]43)N2)cc1 (stereo partly specified) | 24.4 µM | 23.3 µM | 27.6 µM | 28.6 µM | 26.6 µM | 30 µM | 22.3 µM | 11.7 µM | 14.7 µM | 44.8 µM | 30.1 µM | 24.8 µM | 28 µM | 19.4 µM | 7.98 µM | 29.8 µM | 25.9 µM | 47.9 µM | 31.1 µM
COC(=O)C1(Cc2cccc(C)c2)Cc2c(C)cccc2C1=O (stereo unspecified) | > 100 µM | > 100 µM | > 100 µM | > 100 µM | > 100 µM | > 100 µM | > 100 µM | 89.7 µM | > 100 µM | > 100 µM | > 100 µM | > 100 µM | 34.5 µM | > 100 µM | > 100 µM | > 100 µM | > 100 µM | > 100 µM | > 100 µM
O=[N+]([O-])C(=C(N1CCCCC1)N1CCCCC1)/C(Cl)=C(\Cl)[N+](=O)[O-] | 42.4 µM | 46 µM | 36 µM | 19 µM | 3.29 µM | 32.9 µM | 10.1 µM | 12.5 µM | 7.54 µM | 25.4 µM | 2.83 µM | 21.7 µM | 13.3 µM | 11.5 µM | > 100 µM | 35.5 µM | 7.72 µM | 45.7 µM | 32.1 µM
COc1cc(C2S/C(=C/c3ccccc3)C(=O)N2c2cc(Cl)c(Cl)cc2Cl)cc(OC)c1OC (stereo unspecified) | > 100 µM | > 100 µM | > 100 µM | > 74.4 µM | > 100 µM | 19.1 µM | > 100 µM | > 100 µM | > 75 µM | > 100 µM | > 87.1 µM | > 100 µM | > 100 µM | > 100 µM | > 78.3 µM | > 100 µM | > 100 µM | > 100 µM | > 78 µM
